Measured values published in patent US10787452B2 (Vertex Pharmaceuticals Incorporated, priority 2012, dated 2020).

Each molecule was assayed on HCT116 colorectal cancer cells (assay: Cisplatin sensitization assay (96 h cell viability MTS)). Details: 96 h MTS, compound plus Cisplatin.
Format: cell-based
In short: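 Full-matrix combination: compound × cisplatin, 2-fold dilutions from 10 μM top final, co-added; 96 h, 37° C, 5% CO2; MTS read-out after 1 h.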
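Further: compound concentration needed to lower the Cisplatin-alone IC50 by a set fold.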

| Structure (SMILES) | Cisplatin Sensitization Assay |
| --- | --- |
| CN1CCC(Oc2ccncc2NC(=O)c2c(N)nn3cc(F)cnc23)CC1 [I-O-12, 2-amino-6-fluoro-N-(4-((1-methylpiperidin-4-yl)oxy)pyridin-3-yl)pyrazolo[1,5-a]pyrimidine-3-carboxamide] | +++ (Compounds with a Cisplatin sensitization value of <0.02 μM are marked with “+++.”) |
| COC(=O)[C@H]1CC[C@H](Oc2ccncc2NC(=O)c2c(N)nn3cc(F)cnc23)CC1 [I-O-13, (1r,4r)-methyl 4-((3-(2-amino-6-fluoropyrazolo[1,5-a]pyrimidine-3-carboxamido)pyridin-4-yl)oxy)cyclohexanecarboxylate] | +++ (Compounds with a Cisplatin sensitization value of <0.02 μM are marked with “+++.”) |
| CCOc1ccncc1NC(=O)c1c(N)nn2cc(F)cnc12 [I-O-14, 2-amino-N-(4-ethoxypyridin-3-yl)-6-fluoropyrazolo[1,5-a]pyrimidine-3-carboxamide] | +++ (Compounds with a Cisplatin sensitization value of <0.02 μM are marked with “+++.”) |
| Nc1nn2cc(F)cnc2c1C(=O)Nc1cnccc1O[C@H]1Cc2nccn2C1 [I-O-16, (S)-2-amino-N-(4-((6,7-dihydro-5H-pyrrolo[1,2-a]imidazol-6-yl)oxy)pyridin-3-yl)-6-fluoropyrazolo[1,5-a]pyrimidine-3-carboxamide] | +++ (Compounds with a Cisplatin sensitization value of <0.02 μM are marked with “+++.”) |
| CN(C)C(=O)[C@H]1CC[C@@H](Oc2ccncc2NC(=O)c2c(N)nn3cc(F)cnc23)CC1 [I-O-17, 2-amino-N-(4-(((1s,4s)-4-(dimethylcarbamoyl)cyclohexyl)oxy)pyridin-3-yl)-6-fluoropyrazolo[1,5-a]pyrimidine-3-carboxamide] | +++ (Compounds with a Cisplatin sensitization value of <0.02 μM are marked with “+++.”) |
| CN1CCN(C(=O)[C@H]2CC[C@@H](Oc3ccncc3NC(=O)c3c(N)nn4cc(F)cnc34)CC2)CC1 [I-O-19] | +++ (Compounds with a Cisplatin sensitization value of <0.02 μM are marked with “+++.”) |
| CCC(C#N)c1cnc2c(C(=O)Nc3cnccc3OC)c(N)nn2c1 (stereo not drawn) [I-O-20, 2-amino-6-(1-cyanopropyl)-N-(4-methoxypyridin-3-yl)pyrazolo[1,5-a]pyrimidine-3-carboxamide] | ++ (Compounds with a Cisplatin sensitization value >0.02 μM but <0.2 μM are marked with “++.”) |
| COc1ccncc1NC(=O)c1c(N)nn2cc(C(C)C#N)cnc12 (stereo not drawn) [I-O-21, 2-amino-6-(1-cyanoethyl)-N-(4-methoxypyridin-3-yl)pyrazolo[1,5-a]pyrimidine-3-carboxamide] | ++ (Compounds with a Cisplatin sensitization value >0.02 μM but <0.2 μM are marked with “++.”) |
| CN1CCC(Oc2ccncc2NC(=O)c2c(N)nn3cc(CC#N)cnc23)CC1 [I-O-23, 2-amino-6-(cyanomethyl)-N-(4-((1-methylpiperidin-4-yl)oxy)pyridin-3-yl)pyrazolo[1,5-a]pyrimidine-3-carboxamide] | +++ (Compounds with a Cisplatin sensitization value of <0.02 μM are marked with “+++.”) |
| CN(C)CCOc1ccncc1NC(=O)c1c(N)nn2cc(CC#N)cnc12 [I-O-24, 2-amino-6-(cyanomethyl)-N-(4-(2-(dimethylamino)ethoxy)pyridin-3-yl)pyrazolo[1,5-a]pyrimidine-3-carboxamide] | ++ (Compounds with a Cisplatin sensitization value >0.02 μM but <0.2 μM are marked with “++.”) |
| N#CCc1cnc2c(C(=O)Nc3cnccc3Oc3ccccc3)c(N)nn2c1 [I-O-25, 2-amino-6-(cyanomethyl)-N-(4-phenoxypyridin-3-yl)pyrazolo[1,5-a]pyrimidine-3-carboxamide] | +++ (Compounds with a Cisplatin sensitization value of <0.02 μM are marked with “+++.”) |
| COc1ccncc1NC(=O)c1c(N)nn2cc(CC#N)cnc12 [I-O-26, 2-amino-6-(cyanomethyl)-N-(4-methoxypyridin-3-yl)pyrazolo[1,5-a]pyrimidine-3-carboxamide] | ++ (Compounds with a Cisplatin sensitization value >0.02 μM but <0.2 μM are marked with “++.”) |
| COc1cc(Cl)ncc1NC(=O)c1c(N)nn2cc(CC#N)cnc12 [I-O-27, 2-amino-N-(6-chloro-4-methoxypyridin-3-yl)-6-(cyanomethyl)pyrazolo[1,5-a]pyrimidine-3-carboxamide] | ++ (Compounds with a Cisplatin sensitization value >0.02 μM but <0.2 μM are marked with “++.”) |
| CCOc1ccncc1NC(=O)c1c(N)nn2cc(CC#N)cnc12 [I-O-28, 2-amino-6-(cyanomethyl)-N-(4-ethoxypyridin-3-yl)pyrazolo[1,5-a]pyrimidine-3-carboxamide] | +++ (Compounds with a Cisplatin sensitization value of <0.02 μM are marked with “+++.”) |
| COCCOc1ccncc1NC(=O)c1c(N)nn2cc(CC#N)cnc12 [I-O-29, 2-amino-6-(cyanomethyl)-N-(4-(2-methoxyethoxy)pyridin-3-yl)pyrazolo[1,5-a]pyrimidine-3-carboxamide] | +++ (Compounds with a Cisplatin sensitization value of <0.02 μM are marked with “+++.”) |
| N#CCc1cnc2c(C(=O)Nc3cnccc3OC3CCOCC3)c(N)nn2c1 [I-O-30, 2-amino-6-(cyanomethyl)-N-(4-((tetrahydro-2H-pyran-4-yl)oxy)pyridin-3-yl)pyrazolo[1,5-a]pyrimidine-3-carboxamide] | +++ (Compounds with a Cisplatin sensitization value of <0.02 μM are marked with “+++.”) |
| N#CCc1cnc2c(C(=O)Nc3cnccc3OCC3CC3)c(N)nn2c1 [I-O-32, 2-amino-6-(cyanomethyl)-N-(4-(cyclopropylmethoxy)pyridin-3-yl)pyrazolo[1,5-a]pyrimidine-3-carboxamide] | +++ (Compounds with a Cisplatin sensitization value of <0.02 μM are marked with “+++.”) |
| N#CCc1cnc2c(C(=O)Nc3cnccc3OCCO)c(N)nn2c1 [I-O-33, 2-amino-6-(cyanomethyl)-N-(4-(2-hydroxyethoxy)pyridin-3-yl)pyrazolo[1,5-a]pyrimidine-3-carboxamide] | ++ (Compounds with a Cisplatin sensitization value >0.02 μM but <0.2 μM are marked with “++.”) |
| N#CCc1cnc2c(C(=O)Nc3cnccc3OCC(F)(F)F)c(N)nn2c1 [I-O-34, 2-amino-6-(cyanomethyl)-N-(4-(2,2,2-trifluoroethoxy)pyridin-3-yl)pyrazolo[1,5-a]pyrimidine-3-carboxamide] | ++ (Compounds with a Cisplatin sensitization value >0.02 μM but <0.2 μM are marked with “++.”) |
| CC(C)Oc1ccncc1NC(=O)c1c(N)nn2cc(CC#N)cnc12 [I-O-35, 2-amino-6-(cyanomethyl)-N-(4-isopropoxypyridin-3-yl)pyrazolo[1,5-a]pyrimidine-3-carboxamide] | +++ (Compounds with a Cisplatin sensitization value of <0.02 μM are marked with “+++.”) |
| N#CCc1cnc2c(C(=O)Nc3cnccc3OC3CCC3)c(N)nn2c1 [I-O-36, 2-amino-6-(cyanomethyl)-N-(4-cyclobutoxypyridin-3-yl)pyrazolo[1,5-a]pyrimidine-3-carboxamide] | +++ (Compounds with a Cisplatin sensitization value of <0.02 μM are marked with “+++.”) |
